# Measured values published in US20050026223A1, “Method and compositions for increasing bone mass” (The Board of Trustees of the University of Arkansas, priority 1999, published 2005).
# Several values for one entry are separate records, joined by “and”; a condition that tells them apart may be missing. Identical values can stand only once.
# How the values were obtained:
# human ERα = biological target: T1, human ERα (Homo sapiens, UniProt P03372); assay: Estrogen response element luciferase reporter in 293 cells overexpressing hERα; type: cell-based; conditions: 3 copies ERE-luciferase
# T1 construct: expressed in transfected cells; host or cells: 293 (human embryonic kidney) cells
# T1 sequence (P03372 1-595): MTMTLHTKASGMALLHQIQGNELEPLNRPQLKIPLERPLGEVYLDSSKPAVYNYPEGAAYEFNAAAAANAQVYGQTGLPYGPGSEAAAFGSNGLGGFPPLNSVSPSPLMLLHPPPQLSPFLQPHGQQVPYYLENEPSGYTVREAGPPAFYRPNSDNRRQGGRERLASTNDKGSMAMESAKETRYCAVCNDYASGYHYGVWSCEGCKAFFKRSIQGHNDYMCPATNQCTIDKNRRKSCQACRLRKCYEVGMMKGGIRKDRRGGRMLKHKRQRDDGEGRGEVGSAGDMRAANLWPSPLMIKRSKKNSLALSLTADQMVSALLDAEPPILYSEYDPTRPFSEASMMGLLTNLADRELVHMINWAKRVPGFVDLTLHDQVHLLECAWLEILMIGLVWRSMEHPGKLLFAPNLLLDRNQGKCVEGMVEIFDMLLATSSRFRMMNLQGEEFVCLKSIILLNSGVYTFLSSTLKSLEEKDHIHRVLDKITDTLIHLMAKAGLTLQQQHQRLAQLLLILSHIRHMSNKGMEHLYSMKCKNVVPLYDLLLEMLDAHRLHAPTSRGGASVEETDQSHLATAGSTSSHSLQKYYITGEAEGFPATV
# Source text: The human ERα was overexpressed in 293 cells lacking ERα along with a reporter construct containing 3 copies of an estrogen response element driving the luciferase gene. Light units were counted and normalized to coexpressed b-galactosidase activity to control for differences in transfection efficiency. Results represent percent stimulation compared to ERα transfected cells, but not treated with the two agents. Each bar represents mean of duplicate experiments +/−SEM. *p<0.001 vs. cells not exposed to the sterols.
# In this experiment, hERα was overexpressed in 293 cells (which lack constitutive ERα) along with a reporter construct containing 3 copies of an estrogen response element driving the luciferase gene. Light units were counted and normalized to coexpressed β-galactosidase activity to control for differences in transfection efficiency.
# [1] = system: HeLa cells transfected with estrogen receptor β (mERβ); assay: Etoposide-induced apoptosis of HeLa cells stably transfected with mERβ; type: cell-based, human; conditions: compound 10^−8 M 1 h, etoposide 5×10^−5 M 6 hour
# Source text: (§1) CMV promoter alone and CMV promoter-driven cDNA for mERα or mErβ were stably transfected into HeLa cells. […] Cells were trypsinized, pelleted and trypan blue positive cells enumerated.
# (§2) In this experiment, instead of calvaria cells, human HeLa cells which contain undetectable, if any, estrogen receptor were used. HeLa cells were stably transfected with either a CMV promoter-driven cDNA for the murine estrogen receptor-alpha (mERα) or a CMV promoter-driven cDNA for the murine estrogen receptor-beta (mERβ). […] Cells were trypsinized, pelleted and trypan blue positive cells were enumerated.
# wild type HeLa cells = assay: Etoposide-induced apoptosis of wild type HeLa cells; type: cell-based, human; conditions: compound 10^−8 M 1 h, etoposide 5×10^−5 M 6 hour
# Source text: CMV promoter alone and CMV promoter-driven cDNA for mERα or mErβ were stably transfected into HeLa cells. […] Cells were trypsinized, pelleted and trypan blue positive cells enumerated. Each bar represents mean of duplicate experiments ±SEM. *P<0.02 versus etoposide alone.
# as §2
# [2] = system: HeLa cells transfected with the estrogen receptor α (mERα); assay: Etoposide-induced apoptosis of HeLa cells stably transfected with mERα; type: cell-based, human; conditions: compound 10^−8 M 1 h, etoposide 5×10^−5 M 6 hour
# Source text: as §1, §2
# [3] = BMD by dual-energy x-ray absorptiometry in intact or ovariectomized mice, 28 days; type: in vivo; set-up: global 1 (BMD) / hindquart 1 (BMD) / spine 1 (BMD) / global 2 (BMD) / hindquart 2 (BMD) / spine 2 (BMD) / global 1 (BMD), mean / hindquart 1 (BMD), mean / spine 1 (BMD), mean / global 2 (BMD), mean / hindquart 2 (BMD), mean / spine 2 (BMD), mean: unit not given here; conditions: for Global BMD: 2000 ng/g body weight for 28 days, mean; for global 2 (BMD), mean / hindquart 2 (BMD), mean / spine 2 (BMD), mean / global 2 (BMD) / hindquart 2 (BMD) / spine 2 (BMD): 2000 ng/g for 28 days, end of experiment; for global 2 (BMD), mean / hindquart 2 (BMD), mean / spine 2 (BMD), mean / global 1 (BMD), mean / hindquart 1 (BMD), mean / spine 1 (BMD), mean: group mean; for global 2 (BMD) / hindquart 2 (BMD) / spine 2 (BMD) / global 1 (BMD) / hindquart 1 (BMD) / spine 1 (BMD): individual animals; for global 1 (BMD), mean / hindquart 1 (BMD), mean / spine 1 (BMD), mean / global 1 (BMD) / hindquart 1 (BMD) / spine 1 (BMD): 2000 ng/g group, day 0 initial measurement
# Experimental: In a representative experiment of this sort, six 4-5 month old female mice per group are screened twice for BMD in a four week period immediately prior to the initiation of the experiment to establish that peak adult bone mass has been attained. A subset of mice are then ovariectomized. Intact and ovariectomized mice are treated with vehicle, or 20, 200 or 2000 ng/g body weight estratriene-3-ol or another test compound.
# Stock solutions of the test agents (10,000 μg/ml) are maintained in approximately 2.0 ml of 95% ethanol. These stocks are diluted in 95% ethanol to make 1000 μg/ml and 100 μg/ml concentrations. The concentration of the stocks is checked spectrophotometrically. For each animal injection, the test agent is diluted in sesame oil and sonicated. Test agents are administered for 28 days by subcutaneous injections on alternative days. The mice are weighed weekly and serum samples are collected at appropriate times for analysis of bone biochemical markers, such as osteocalcin or collagen cross-links. Tetracycline labeling is performed by administration of the antibiotic (30 mg/kg) at 2 and 8 days prior to the end of each experiment.
# During the 28 day experiment, BMD is determined in live animals at day 0, 14 and 28. Following animal sacrifice at the end of the experiment, the vertebral bones L1-L4 are collected for fixation and embedded undecalcified in methylmethacrylate plastic for the determination of the prevalence of osteoblast and osteocyte apoptosis and other static and dynamic histomorphometric measurements. L5 vertebrae are isolated for determining anti-fracture efficacy of the compounds by assaying compression, 3 point bending and other appropriate biomechanical tests. Results confirming the expected efficacy of these compounds show decreased prevalence of osteoblast and/or osteocyte apoptosis, and/or positive BMD changes, and/or increased cancellous bone area, and/or increased rate of bone formation, and/or increased biomechanical strength.
# As an example, the results of an experiment whereby 2000 ng/g body weight of estratriene-3-ol was administered for 28 days to estrogen-replete (intact) or estrogen-deficient (ovariectomized) mice are shown in Table 2.
# Each row represents values for individual animals. The first three sets of numbers represent the initial BMD measurements (by dual-energy x-ray absorptiometry with Hologic QDR2000 plus, using customized software) at day 0 and the last three BMD measurements at the end of the experiment. Global=BMD of the entire skeleton minus the head and tail; hindquarters=the mean BMD of both hindlimbs; spine=the BMD of cervical, thoracic and lumbar spine.
# [4] = Ovx mice, t-test ovx vs 2000 ng/g 0.0001
structure (smiles),measurement,setting,value
C[C@@]12CCC[C@H]1[C@@H]1CCc3cc(O)ccc3[C@H]1CC2 [estratriene-3-ol],Transactivation of an estrogen response element through the estrogen receptor α,human ERα,did not transactivate
same,Effect on etoposide-induced apoptosis,[1],potently inhibited
same,Effect on etoposide-induced apoptosis,wild type HeLa cells,none of the three compounds had any effect
same,Effect on etoposide-induced apoptosis,[2],potently inhibited
same,Global BMD,"[3]; Ovx mice, p < 0.00001",0.0555 ± 0.0011 g/cm2
same,"global 2 (BMD), mean","[3]; Ovx mice, t-test ovx vs 2000 ng/g 0.0000",0.0555
same,"hindquart 2 (BMD), mean",[3]; [4],0.0618
same,"spine 2 (BMD), mean",[3]; [4],0.0599
same,global 2 (BMD),[3]; Ovx mice,0.0565 and 0.0557 and 0.0548 and 0.0545 and 0.0564 and 0.0568 and 0.0550 and 0.0539
same,hindquart 2 (BMD),[3]; Ovx mice,0.0602 and 0.0632 and 0.0599 (2×) and 0.0624 and 0.0598 and 0.0647 and 0.0630
same,spine 2 (BMD),[3]; Ovx mice,0.0608 and 0.0585 and 0.0584 and 0.0598 and 0.0610 and 0.0625 and 0.0578 and 0.0605
same,"global 1 (BMD), mean",[3]; Ovx mice,0.0534
same,"hindquart 1 (BMD), mean",[3]; Ovx mice,0.0573
same,"spine 1 (BMD), mean",[3]; Ovx mice,0.0579
same,global 1 (BMD),[3]; Ovx mice,0.0505 and 0.0542 and 0.0496 and 0.0540 and 0.0526 and 0.0569 and 0.0565 and 0.0528
same,hindquart 1 (BMD),[3]; Ovx mice,0.0527 and 0.0588 and 0.0504 and 0.0596 and 0.0547 and 0.0604 and 0.0591 and 0.0582
same,spine 1 (BMD),[3]; Ovx mice,0.0547 and 0.0581 and 0.0542 and 0.0586 and 0.0580 and 0.0628 and 0.0603 and 0.0568
same,Global BMD,"[3]; intact mice, p < 0.002",0.0554 ± 0.0015 g/cm2
same,"global 2 (BMD), mean","[3]; intact mice, t-test vehicle vs 2000 ng/g 0.0036",0.0554
same,"spine 2 (BMD), mean","[3]; intact mice, t-test vehicle vs 2000 ng/g 0.0037",0.0609
same,"hindquart 2 (BMD), mean","[3]; intact mice, t-test vehicle vs 2000 ng/g 0.0077",0.0605
same,global 2 (BMD),[3]; intact mice,0.0550 and 0.0543 and 0.0541 and 0.0568 (2×) and 0.0537 and 0.0574
same,hindquart 2 (BMD),[3]; intact mice,0.0585 and 0.0603 and 0.0619 and 0.0629 and 0.0640 and 0.0554 and 0.0605
same,spine 2 (BMD),[3]; intact mice,0.0602 and 0.0604 and 0.0601 and 0.0613 and 0.0620 and 0.0588 and 0.0632
same,"global 1 (BMD), mean",[3]; intact mice,0.0527
same,"hindquart 1 (BMD), mean",[3]; intact mice,0.0562
same,"spine 1 (BMD), mean",[3]; intact mice,0.0571
same,global 1 (BMD),[3]; intact mice,0.0486 and 0.0511 and 0.0543 and 0.0537 and 0.0533 and 0.0521 and 0.0560
same,hindquart 1 (BMD),[3]; intact mice,0.0509 and 0.0565 and 0.0605 and 0.0577 and 0.0546 and 0.0544 and 0.0587
same,spine 1 (BMD),[3]; intact mice,0.0511 and 0.0560 and 0.0593 and 0.0584 and 0.0571 and 0.0555 and 0.0623
